Values joined by “and” are separate entries in the source; they are usually repeats but may differ in a detail not shown here. Equal values may be shown once.
What was measured:
[1] = xn = mol fraction of the nth substance listed; details: 101 kPa, Liquid; for speed of sound: Pulse-echo method; for mass density: Vibrating tube method
[2] = 101.3 kPa, Liquid; for speed of sound: Pulse-echo method; for mass density: Vibrating tube method

ClC(Cl)(Cl)Br [bromotrichloromethane] + ClCBr
[1], x1 = 1
Details | mass density [kg/m3] | speed of sound [m/s]
293.15 K | 2013.06 | 917.1
298.15 K | 2002.14 | 903.6
303.15 K | 1991.2 | 890.2
308.15 K | 1980.24 | 876.8
313.15 K | 1969.25 | 863.6

CCCCCCC [heptane] + ClC(Cl)(Cl)Br
[1], x2 = 0
Details | mass density [kg/m3] | speed of sound [m/s]
293.15 K | 683.84 | 1152.6
298.15 K | 679.6 | 1131
303.15 K | 675.33 | 1109.6
308.15 K | 671.04 | 1088.2
313.15 K | 666.71 | 1067.1

ClC(Cl)(Cl)Br [bromotrichloromethane]
[2]
Details | mass density [kg/m3] | speed of sound [m/s]
293.15 K | 2013.06 | 917.1
298.15 K | 2002.14 | 903.6
303.15 K | 1991.2 | 890.2
308.15 K | 1980.24 | 876.8
313.15 K | 1969.25 | 863.6

CCCCCCC [heptane]
[2]
Details | mass density [kg/m3] | speed of sound
293.15 K | 683.84 | 1152.6 m/s and 1152.2 m/s
298.15 K | 679.6 | 1131 m/s and 1130.9 m/s
303.15 K | 675.33 | 1109.6 m/s and 1109.1 m/s
308.15 K | 671.04 | 1088.2 m/s and 1088.1 m/s
313.15 K | 666.71 | 1067.1 m/s and 1066.9 m/s

CCCCCCC [heptane] + BrCBr
[1], x2 = 0
Details | mass density [kg/m3] | speed of sound [m/s]
293.15 K | 683.84 | 1152.2
298.15 K | 679.6 | 1130.9
303.15 K | 675.33 | 1109.1
308.15 K | 671.04 | 1088.1
313.15 K | 666.71 | 1066.9

ClCBr [bromochloromethane]
[2]
Details | mass density [kg/m3] | speed of sound [m/s]
293.15 K | 1933.23 | 1001.2
298.15 K | 1921.71 | 986.1
303.15 K | 1910.15 | 971
308.15 K | 1898.51 | 955.9
313.15 K | 1886.82 | 940.8

BrCBr [dibromomethane]
[2]
Details | mass density [kg/m3] | speed of sound [m/s]
293.15 K | 2491.67 | 961.8
298.15 K | 2478.61 | 949.2
303.15 K | 2465.53 | 936.6
308.15 K | 2452.42 | 924
313.15 K | 2439.26 | 911.4

BrCBr [dibromomethane] + ClC(Cl)(Cl)Br
[1], x2 = 0
Details | mass density [kg/m3] | speed of sound [m/s]
293.15 K | 2491.67 | 961.8
298.15 K | 2478.61 | 949.2
303.15 K | 2465.53 | 936.6
308.15 K | 2452.42 | 924
313.15 K | 2439.26 | 911.4

Reference: the NIST ThermoML archive (doi:10.1021/je300775u)
